How the values were obtained:
IKK, IκB, STAT6 = test: Western blot of NF-κB-activating signal and STAT6 phosphorylation in HaCaT cells; format: cell-based, human; settings: 10 minutes; for TNF-α+IL-4 stimulation-induced increase in phosphorylation of IKK / TNF-α+IL-4 stimulation-induced reduction in inhibitory protein IκB of NF-κB: 16D10 100 μM
NF-κB [1] = test: NF-κB luciferase reporter assay in HaCaT cells; format: cell-based, human; settings: TNF-α 100 ng/ml, 2 hours, 16D10 10 or 100 μM, TPCA-1 10 μM
Protocol: The transfection of Path Detect pNF-κB-Luc Plasmid (Stratagane) was performed with X-tremeGENE HP DNA Transfection Reagent in accordance with an accompanying protocol. Human keratinocyte HaCaT cells were seeded at 0.65×10^5 cells/ml into a 12-well plate (Falcon (trademark)), and cultured for 24 hours. […], first, to 50 μl of Opti-MEM at from 15° C. to 25° C., a 500 ng/μl reporter plasmid solution and a 100 ng/μl pGL4.74[hRluc/TK] Vector solution were added at 1 μl each. Next, 1. 5 μl of X-tremeGENE HP DNA Transfection Reagent was added, and the contents were lightly mixed by inversion and then left to standstill at room temperature for 15 minutes to form a transfection complex. Further, the culture supernatant was removed from the cells that had been cultured for 24 hours, and the cells were washed with PBS. After that, 950 μl of 10% FBS-containing MEMα was added to each well. […]
(§1) The measurement of luciferase activity was performed with Dual-Luciferase (trademark) Reporter Assay System in accordance with an accompanying protocol. […] Immediately after that, a Firefly luciferase luminescence integrated value for 10 seconds was calculated with AB-2200-R Luminescencer PSN (ATTO Corporation). After that, 50 μl of Stop&Glo reagent was added and the contents were lightly mixed, and then a Renilla luciferase luminescence integrated value for 10 seconds was measured.

various kinases = test: Off-chip Mobility Shift Assay kinase panel (Carna Biosciences); format: biochemical; settings: 16D10 at 10 μM
Protocol: Carna Biosciences, Inc. was entrusted to measure the effect of the test compound 16D10 at 10 μM on the activity of each kinase by Off-chip Mobility Shift Assay (MSA) described on the website of Carna Biosciences, Inc. (http://www.carnabio.com/output/pdf/ProfilingProfilingBook_ja. pdf). Specifically, the measurement was performed by the following method.
The test compound is dissolved in and diluted with DMSO to a 100-fold concentration. Then, the solution is diluted 25-fold with assay buffer to prepare a test compound solution. A control is similarly prepared.
(1) […] of a 4-fold compound solution, 5 mL of a 4-fold Substrate/ATP/Metal solution, and […] of a 2-fold kinase solution are prepared with assay buffer (20 mM HEPES, 0.01% Triton X-100, 2 mM DTT, pH 7.5), and are mixed and incubated in a polypropylene 384-well plate at room temperature for from 1 hour or 5 hours* (*the reaction time is set depending on the kinase); (2) […] of termination buffer (QuickScout Screening Assist MSA; Carna Biosciences) is added to each well; (3) the reaction mixture is applied to a LabChip™ system (PerkinElmer), and the peaks of a product and a substrate peptide are separated and quantified; and (4) a kinase reaction is evaluated on the basis of a product ratio (P/(P+S)) calculated from the peak heights of the product (P) and the substrate (S) peptide.

TSLP [2] = test: OVA air pouch model in ICR mouse; format: in vivo
Protocol: (§2) 500 μl of air was subcutaneously injected into the back of an ICR mouse (6-week-old, male, SLC) to form an air pouch (day 1). Further, 500 μl each of air was injected into the air pouch on day 2, day 5, and day 7. 24 hours after that, 300 μl of a solution prepared by dissolving ovalbumin (OVA) at 100 μg/0.3 ml in 2% (w/v) CMC-Na physiological saline that had been subjected to high-pressure steam sterilization and further dissolving penicillin G potassium and streptomycin sulfate at 0.1 mg/ml each therein was injected into the air pouch to induce inflammation. […]
8 hours after the administration of the solution into the air pouch, the mouse was killed through blood removal by cutting the carotid artery under anesthesia. 300 μl of physiological saline was injected into the air pouch so as to be mixed with air pouch internal fluid, and then the air pouch internal fluid was collected and its weight was measured. Its TSLP concentration was measured with Mouse TSLP DuoSet (trademark) ELISA (R&D Systems) in accordance with an accompanying protocol. 14 days after the administration of the solution into the air pouch, blood was collected, and the amount of OVA-specific IgE in serum was measured with an ELISA kit (Anti-ovalbumin IgE (mouse) EIA kit (Cayman 500840)).

TSLP [3] = test: TSLP production by TNF-α stimulation in PAM212 cells (ELISA); format: cell-based, mouse; settings: TNF-α 30 ng/ml, 16D10 1, 3 and 10 μM, 48 hours
Protocol: After the culture, TSLP in the culture solution was measured by EILSA.

TSLP [4] = test: LPS-induced air pouch inflammation in Balb/c mouse; format: in vivo; settings: 8 hours after administration into the air pouch
Protocol: as §2, with “a Balb/c” for “an ICR”, “LPS” for “ovalbumin (OVA)”, “10 ng/ml” for “100 μg/0.3 ml”
8 hours after the administration of the solution into the air pouch, the mouse was killed through blood removal by cutting the carotid artery under anesthesia. 300 μl of physiological saline was injected into the air pouch so as to be mixed with air pouch internal fluid, and then the air pouch internal fluid was collected and its weight was measured. An infiltrating leukocyte count was measured with a hemocytometer after the collected air pouch internal fluid had been diluted with physiological saline as appropriate. […] The supernatant was collected, and its TSLP concentration was measured with Mouse TSLP DuoSet (trademark) ELISA (R&D Systems) in accordance with an accompanying protocol. […]

NF-κB [5] = test: NF-κB luciferase reporter assay in KCMH-1 cells; format: cell-based, mouse; settings: 16D10 10 μM
Protocol: The transfection of Path Detect pNF-κB-Luc Plasmid (Stratagane) was performed with X-tremeGENE HP DNA Transfection Reagent in accordance with an accompanying protocol. Mouse keratinocyte KCMH-1 cells were seeded at 1×10^5 cells/ml into a 12-well plate (Falcon (trademark)), and cultured for 24 hours. The following day, first, to 50 μl of Opti-MEM at from 15° C. to 25° C., a 500 ng/μl reporter plasmid solution and a 100 ng/μl pGL4.74 [hRluc/TK] Vector solution were added at 1 μl each. Next, 1.5 μl of X-tremeGENE HP DNA Transfection Reagent was added, and the contents were lightly mixed by inversion and then left to stand still at room temperature for 15 minutes to form a transfection complex. Further, the culture supernatant was removed from the cells that had been cultured for 24 hours, and the cells were washed with PBS. After that, 950 μl of 10% FBS-containing MEMα was added to each well. […]
as §1

TSLP [6] = test: TSLP production in KCMH-1 cells (ELISA); format: cell-based, mouse; settings: 24 hours, culture supernatant
Protocol: KCMH-1 cells (J. Immunol. Methods 402: 9-14 (2013)) were suspended in 10% FBS-containing MEM-α at 1.0×10^5 cells/mL.
The culture supernatant was collected, and a TSLP amount was measured with Mouse TSLP DuoSet (trademark) ELISA (R&D Systems).

TSLP mRNA = TSLP mRNA expression in stimulated HaCaT cells (real-time PCR); format: cell-based, human; settings: 16D10 10 and 100 μM, 4 hours
From the text: […] […] Forward: [NT], Reverse: [NT] rRNA forward: [NT], Reverse: [NT].

| SMILES | TNF-α+IL-4 stimulation-induced increase in phosphorylation of IKK (IKK, IκB, STAT6) | TNF-α+IL-4 stimulation-induced reduction in inhibitory protein IκB of NF-κB (IKK, IκB, STAT6) | increase in phosphorylation of STAT6 by stimulation (IKK, IκB, STAT6; TNF-α + IL-4, 16D10 100 μM) | transcriptional activity of NF-κB (NF-κB [1]) | activity of each kinase (various kinases) | OVA-specific IgE in serum (TSLP [2]; 14 days after administration into the air pouch) | TSLP production by OVA (TSLP [2]; air pouch internal fluid, 8 hours after administration) | TSLP production by TNF-α (TSLP [3]) | TSLP concentration in air pouch internal fluid (TSLP [4]) | infiltrating leukocyte count (TSLP [4]) | transcriptional activity of NF-κB (NF-κB [5]; KCMH-1 cells, 24 hours) | TSLP production (NF-κB [5]; KCMH-1 mouse keratinocyte cell line) | TSLP production-suppressing ability (TSLP [6]) | expression of TSLP mRNA (TSLP mRNA; Poly(I:C) 50 μg/ml stimulation) | expression of TSLP mRNA (TSLP mRNA; TNF-α 100 ng/ml stimulation) |
| --- | --- | --- | --- | --- | --- | --- | --- | --- | --- | --- | --- | --- | --- | --- | --- |
| COc1ccc(OC)c(/C=C/C(=O)c2cc(OC)c(OC)cc2CCNC(C)=O)c1 [16D10, (E)-N-[2-[2-[3-(2,5-dimethoxyphenyl)-1-oxo-2-propen-1-yl]-4,5-dimethoxyphenyl]ethyl]acetamide] | not suppressed | not suppressed | did not suppress | did not suppress the activity | did not suppress the activity of each kinase analyzed | suppressed the production of OVA-specific IgE | significantly suppressed TSLP production by OVA | suppressed TSLP production by TNF-α in a concentration-dependent manner | significantly suppressed TSLP production | did not reduce infiltrating leucocytes | without suppressing the transcriptional activity of NF-κB | suppressed TSLP production | extremely high TSLP production-suppressing ability | suppressed | suppressed |
| NC(=O)Nc1sc(-c2ccc(F)cc2)cc1C(N)=O [TPCA-1, [5-(p-Fluorophennyl)-2-ureido]thiophene-3-carboxamide, reference compound] | suppressed | suppressed |  | suppressed the transcriptional activity of NF-κB |  |  |  |  |  |  |  |  |  |  |  |
